Laboratory results as given in patent US11065253B2, “Arylquinazolines” (Merck Patent GmbH, priority 2013, dated 2021).
Read-outs that look alike come from different tables or passages of the source.

What was measured:
[1] = molecular target: Kv11.1 (hERG) channel (Homo sapiens (Human), UniProt Q12809); test: Kv11.1 ion channel binding assay (Predictor hERG fluorescence polarisation); conditions: class symbol marked with asterisk (*)
Method: D) Kv11.1 Ion Channel Binding Assay
Kv11.1 (hERG=human ether a go-go related […]) is a cardiac K^+ channel which should if possible not interact with the test substances. This interaction is determined quantitatively with the aid of the Predictor™ hERG Fluorescence Polarizations (FP) Assays from Life Technologies. In the case of this assay principle, cardiomyocyte cell membranes having a certain proportion of Kv11.1 channels are isolated. A dye-labelled Kv11.1 binding partner gives a high fluorescence polarisation signal by interaction with the Kv11.1. In the case of displacement of the dye, a reduction in the fluorescence polarisation signal occurs.
The assay is carried out automatically as follows: 15 nl of the test substances (highest concentration: 10 mM, 10 concentrations: dilution factors 1:3.16, DMSO) are transferred into an empty microtitre plates having 384 wells by means of an acoustic pipetter. 3 μl of the isolated membranes are subsequently added. Membranes and test substances are incubated at 22° C. for 15 min (+/−5 min). In the next step, the dye-labelled binding partner is added, followed by incubation at 22° C. After incubation for two hours, the measurement of the fluorescence polarisation is carried out on an Envision multimode Reader. Measured raw data are standardised with the aid of Genedata Assay Analyzer. The IC50 and % effect values are calculated in Genedata Condoseo.

[2] = system: phospho-serine 2056 DNA-PK in HCT116 cells; test: DNA-PK phosphorylation at serine 2056 (cellular), ELISA in bleomycin-treated HCT116 cells; assay type: cell-based; conditions: bleomycin-treated HCT116 cells, read-out: IC50 pDNA-PK
In short: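 Chemiluminescent ELISA quantified DNA-PK Ser2056 phosphorylation relative to total DNA-PKcs in HCT116 cells. Cells received compounds together with 10 μM bleomycin for 6 h; DMSO served as blank.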

[3] = Homo sapiens, HCT-116, phospho-serine 2056 DNA-PK

Chain of Kv11.1 (hERG) channel (Q12809 whole entry): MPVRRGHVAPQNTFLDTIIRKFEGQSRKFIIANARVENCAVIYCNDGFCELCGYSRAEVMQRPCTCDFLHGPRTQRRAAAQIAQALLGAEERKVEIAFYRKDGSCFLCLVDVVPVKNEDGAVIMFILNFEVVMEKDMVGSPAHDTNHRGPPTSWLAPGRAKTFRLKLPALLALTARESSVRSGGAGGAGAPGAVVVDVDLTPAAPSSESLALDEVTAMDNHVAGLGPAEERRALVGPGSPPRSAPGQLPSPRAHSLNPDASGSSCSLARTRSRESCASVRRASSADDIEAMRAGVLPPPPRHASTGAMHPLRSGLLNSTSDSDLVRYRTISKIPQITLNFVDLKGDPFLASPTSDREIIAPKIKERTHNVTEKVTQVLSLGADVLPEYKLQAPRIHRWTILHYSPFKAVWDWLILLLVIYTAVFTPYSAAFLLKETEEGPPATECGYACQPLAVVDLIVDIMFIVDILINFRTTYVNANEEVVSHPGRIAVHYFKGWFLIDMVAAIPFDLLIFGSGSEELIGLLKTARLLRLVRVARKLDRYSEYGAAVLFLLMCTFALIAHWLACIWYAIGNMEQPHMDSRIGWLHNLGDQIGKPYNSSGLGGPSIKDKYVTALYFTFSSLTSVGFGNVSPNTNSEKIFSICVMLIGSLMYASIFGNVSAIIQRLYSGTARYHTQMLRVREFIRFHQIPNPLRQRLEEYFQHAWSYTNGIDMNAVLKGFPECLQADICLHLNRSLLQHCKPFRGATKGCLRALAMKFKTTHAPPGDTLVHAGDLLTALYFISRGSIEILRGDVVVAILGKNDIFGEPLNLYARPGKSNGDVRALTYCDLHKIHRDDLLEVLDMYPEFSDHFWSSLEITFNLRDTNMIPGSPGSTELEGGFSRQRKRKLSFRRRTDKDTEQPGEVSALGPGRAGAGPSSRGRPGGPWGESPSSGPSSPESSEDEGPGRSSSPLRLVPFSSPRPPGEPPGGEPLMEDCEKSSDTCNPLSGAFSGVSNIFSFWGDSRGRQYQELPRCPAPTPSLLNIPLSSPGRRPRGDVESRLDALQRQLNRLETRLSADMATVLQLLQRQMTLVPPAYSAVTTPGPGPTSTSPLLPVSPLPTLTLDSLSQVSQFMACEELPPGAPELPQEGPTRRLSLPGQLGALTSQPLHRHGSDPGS

Compound	Ki [Kv1.11 hERG] [1]	IC50 ([2]; phospho-serine 2056 DNA-PK)	IC50 [2, 3]
CNC(=O)C(c1ccc(F)c(-c2ncnc3cc(N4CCOCC4)ccc23)c1)c1ncccc1Cl (stereo not drawn) [Example 230, 2-(3-Chloro-pyridin-2-yl)-2-[4-fluoro-3-(7-morpholin-4-yl-quinazolin-4-yl)-phenyl]-N-methyl-acetamide]	B*	5000 to 10000 nM	–
Fc1cc(Cl)c(Cc2ccc3nccn3n2)cc1-c1ncnc2cc(N3CCOCC3)ccc12 [Example 235, 4-(4-Chloro-2-fluoro-5-imidazo[1,2-b]-pyridazin-6-ylmethyl-phenyl)-7-morpholin-4-ylquinazoline]	A*	–	< 500 nM
CNC(=O)C(c1ccc2nccn2n1)c1cc(-c2ncnc3cc(N4CCOCC4)ccc23)c(F)cc1Cl (stereo not drawn) [Example 236, 2-[2-Chloro-4-fluoro-5-(7-morpholin-4-yl-quinazolin-4-yl)-phenyl]-2-imidazo-[1,2-b]pyridazin-6-yl-N-methylacetamide]	A*	–	5000 to 10000 nM
Cc1nccnc1C(O)c1ccc(F)c(-c2ncnc3cc(N4CCOCC4)sc23)c1 (stereo not drawn) [Example 245, [4-Fluoro-3-(6-morpholin-4-yl-thieno[3,2-d}-pyrimidin-4-yl)-phenyl]-(3-methyl-pyrazin-2-yl)-methanol]	A*	–	< 500 nM
COc1nccnc1C(O)c1cc(-c2ncnc3cc(N4CCOCC4)cc(F)c23)c(F)cc1Cl (stereo not drawn) [Example 249, [2-Chloro-4-fluoro-5-(5-fluoro-7-morpholin-4-yl-quinazolin-4-yl)-phenyl]-(3-methoxy-pyrazin-2-yl)-methanol]	A*	–	< 500 nM
COc1nccnc1C(O)c1cc(-c2ncnc3cc(N4CCOCC4)cc(F)c23)c(F)cc1Cl (stereo not drawn) [Example 250, [2-Chloro-4-fluoro-5-(5-fluoro-7-morpholin-4-yl-quinazolin-4-yl)-phenyl]-(3-methoxy-pyrazin-2-yl)-methanol]	A*	< 500 nM	–
Cc1nccnc1[C@@H](O)c1ccc(F)c(-c2ncnc3cc(N4CCOCC4)cc(F)c23)c1 [Example 251, (S)-[4-fluoro-3-(5-fluoro-7-morpholin-4-ylquinazolin-4-yl)-phenyl]-(3-methyl-pyrazin-2-yl)-methanol]	A*	–	500 to 5000 nM
COc1nccnc1C(O)c1ccc(F)c(-c2ncnc3cc(N4CCOCC4)cc(F)c23)c1 (stereo not drawn) [Example 252, [4-Fluoro-3-(5-fluoro-7-morpholin-4-yl-quinazolin-4-yl)-phenyl]-(3-methoxy-pyrazin-2-yl)-methanol]	A*	< 500 nM	–
CNC(=O)C(c1cc(-c2ncnc3cc(N4CCOCC4)ccc23)c(F)cc1Cl)c1nccnc1C (stereo not drawn) [Example 254, 2-[2-Chloro-4-fluoro-5-(7-morpholin-4-yl-quinazolin-4-yl)-phenyl]-N-methyl-2-(3-methyl-pyrazin-2-yl)acetamide]	A*	–	10000 to 30000 nM
COc1ccc(C(O)c2ccc(F)c(-c3ncnc4cc(N5CCOCC5)cc(F)c34)c2)nn1 (stereo not drawn) [Example 255, [4-Fluoro-3-(5-fluoro-7-morpholin-4-yl-quinazolin-4-yl)-phenyl]-(6-methoxy-pyridazin-3-yl)-methanol]	A*	–	< 500 nM
COc1ccc(C(O)c2ccc(F)c(-c3ncnc4cc(N5CCOCC5)cc(F)c34)c2)nn1 (stereo not drawn) [Example 256, [4-Fluoro-3-(5-fluoro-7-morpholin-4-yl-quinazolin-4-yl)-phenyl]-(6-methoxy-pyridazin-3-yl)-methanol]	A*	< 500 nM	–
[2H]C1([2H])OC([2H])([2H])C([2H])([2H])N(c2ccc3c(-c4cc(C(O)c5nccnc5OC)c(Cl)cc4F)ncnc3c2)C1([2H])[2H] (stereo not drawn) [Example 258, [2-Chloro-4-fluoro-5-[7-(2,2,3,3,5,5,6,6-octadeuterio-morpholin-4-yl)-quinazolin-4-yl- ]phenyl]-(3-methoxy-pyrazin-2-yl)-methanol]	A*	< 500 nM	–
[2H]C1([2H])OC([2H])([2H])C([2H])([2H])N(c2ccc3c(-c4cc(C(O)c5nccnc5C)ccc4F)ncnc3c2)C1([2H])[2H] (stereo not drawn) [Example 259, [4-Fluoro-3-[7-(2,2,3,3,5,5,6,6-octadeuterio-morpholin-4-yl)quinazolin-4-yl]phenyl]-(3-methyl-pyrazin-2-yl)-methanol]	A*	< 500 nM	–
[2H]C1([2H])OC([2H])([2H])C([2H])([2H])N(c2ccc3c(-c4cc(C(O)c5ccc(OC)nn5)c(Cl)cc4F)ncnc3c2)C1([2H])[2H] (stereo not drawn) [Example 262, [2-Chloro-4-fluoro-5-[7-(2,2,3,3,5,5,6,6-octadeuterio-morpholin-4-yl)quinazolin-4-yl]phenyl]-(6-methoxypyridazin-3-yl)methanol]	A*	< 500 nM	–
Cc1nccnc1C(O)c1cc(-c2ncnc3cc(N4CCOCC4)sc23)c(F)cc1Cl (stereo not drawn) [Example 264, [2-Chloro-4-fluoro-5-(6-morpholin-4-yl-thieno[3,2-d}-pyrimidin-4-yl)-phenyl]-(3-methyl-pyrazin-2-yl)-methanol]	A*	–	< 500 nM
Cc1nccnc1C(O)c1ccc(F)c(-c2ncnc3cc(N4CCOCC4)sc23)c1 (stereo not drawn) [Example 265, [4-Fluoro-3-(6-morpholin-4-yl-thieno[3,2-d}-pyrimidin-4-yl)-phenyl]-(3-methyl-pyrazin-2-yl)-methanol]	A*	< 500 nM	–
COc1nccnc1C(O)c1cc(-c2ncnc3cc(N4CCOCC4)cc(F)c23)c(F)cc1Cl (stereo not drawn) [Example 266, [2-Chloro-4-fluoro-5-(5-fluoro-7-morpholin-4-yl-quinazolin-4-yl)-phenyl]-(3-methoxy-pyrazin-2-yl)-methanol]	A*	< 500 nM	–
COc1nccnc1C(O)c1ccc(F)c(-c2ncnc3cc(N4CCOCC4)cc(F)c23)c1 (stereo not drawn) [Example 267, [4-Fluoro-3-(5-fluoro-7-morpholin-4-yl-quinazolin-4-yl)-phenyl]-(3-methoxy-pyrazin-2-yl)-methanol]	A*	< 500 nM	–
Cc1nccnc1C(O)c1ccc(F)c(-c2ncnc3cc(N4CCOCC4)cc(F)c23)c1 (stereo not drawn) [Example 268, [4-Fluoro-3-(5-fluoro-7-morpholin-4-yl-quinazolin-4-yl)-phenyl]-(3-methyl-pyrazin-2-yl)-methanol]	A*	–	< 500 nM
Cc1nccnc1C(C(N)=O)c1cc(-c2ncnc3cc(N4CCOCC4)sc23)c(F)cc1Cl (stereo not drawn) [Example 269, 2-[2-Chloro-4-fluoro-5-(6-morpholin-4-yl-thieno[3,2-d}-pyrimidin-4-yl)-phenyl]-2-(3-methyl-pyrazin-2-yl)-acetamide]	A*	–	500 to 5000 nM
Cc1nccnc1C(C(N)=O)c1ccc(F)c(-c2ncnc3cc(N4CCOCC4)sc23)c1 (stereo not drawn) [Example 270, 2-[4-Fluoro-3-(6-morpholin-4-yl-thieno[3,2-d}-pyrimidin-4-yl)-phenyl]-2-(3-methyl-pyrazin-2-yl)-acetamide]	A*	–	5000 to 10000 nM
COc1ccc(C(C(N)=O)c2cc(-c3ncnc4cc(N5CCOCC5)sc34)c(F)cc2Cl)nn1 (stereo not drawn) [Example 272, 2-[2-Chloro-4-fluoro-5-(6-morpholin-4-yl-thieno[3,2-d}-pyrimidin-4-yl)-phenyl]-2-(6-methoxy-pyridazin-3-yl)acetamide]	A*	–	500 to 5000 nM
COc1ccc(C(O)c2cc(-c3ncnc4cc(N5CCOCC5)cc(F)c34)c(F)cc2Cl)nn1 (stereo not drawn) [Example 278, [2-chloro-4-fluoro-5-(5-fluoro-7-morpholin-4-ylquinazolin-4-yl)phenyl]-(6-methoxypyridazin-3-yl)methanol]	A*	< 500 nM	–
OC(c1ccc(F)c(-c2ncnc3cc(N4CCOCC4)ccc23)c1)c1nccn2ncnc12 (stereo not drawn) [Example 279, [4-Fluoro-3-(7-morpholin-4-yl-quinazolin-4-yl)-phenyl]-[1,2,4]-triazolo[1,5-a]-pyrazin-8-ylmethanol]	A*	–	5000 to 10000 nM
NC(=O)C(c1ccc(F)c(-c2ncnc3cc(N4CCOCC4)ccc23)c1)c1nccn2ncnc12 (stereo not drawn) [Example 280, 2-[4-Fluoro-3-(7-morpholin-4-yl-quinazolin-4-yl)-phenyl]-2-[1,2,4]-triazolo[1,5-a]-pyrazin-8-yl-acetamide]	A*	–	10000 to 30000 nM
COc1ccc(C(O)c2ccc(F)c(-c3ncnc4cc(N5CCOCC5)c(F)cc34)c2)nn1 (stereo not drawn) [Example 282, [4-Fluoro-3-(6-fluoro-7-morpholin-4-yl-quinazolin-4-yl)-phenyl]-(6-methoxy-pyridazin-3-yl)-methanol]	A*	–	10000 to 30000 nM
COc1nnc(Cl)cc1C(O)c1ccc(F)c(-c2ncnc3cc(N4CCOCC4)ccc23)c1 (stereo not drawn) [Example 286, (6-Chloro-3-methoxy-pyridazin-4-yl)-[4-fluoro-3-(7-morpholin-4-yl-quinazolin-4-yl)-phenyl]methanol (Ena 1)]	A*	–	5000 to 10000 nM
